# Results reported in patent US20230210999A1, “TARGETED PROTEASE DEGRADATION (TED) PLATFORM” (EUBULUS BIOTHERAPEUTICS INC., priority 2020, published 2023).
# Like-named read-outs stand apart in the source and are kept apart here.
# Experiments:
# Assay type in all cases: cell-based, human
# [1] = test system: Daudi cells; experiment: Cell proliferation experiment, Daudi; details: Homo sapiens, Daudi, read-out: Inhibitory activity IC50 on Daudi
# Protocol: (§1) Reagents: RPMI-1640 medium, McCoy's 5A medium, IMDM medium, MEM medium, L-15 medium, fetal bovine serum. Penicillin-Streptomycin double antibody, trypsin, etc., 2-mercaptoethanol, NEAA, pyruvate, etc.
# (§2) The cells were cultured in conventional ways, and the cells should be passed at least 2 generations before plating. Cells at the logarithmic growth phase were collected, prepared into single cell suspensions and counted. The concentration of cells was adjusted to the desired concentration, and cells were inoculated into a 96-well cell culture plate at 100 μl per well. 100 μL of complete medium of the test compound were added to each well, set up 2 duplicate wells for each concentration, and diluted with a 5-fold gradient, and continued to culture for 72 h. All cells were subjected to IC50 test for corresponding samples. The experimental results are shown in Test Example 4.
# (§3) The fluorescence intensity of each well was detected using the Alarm blue method, and IC50 was calculated.
# (§4) IC50 was calculated according to the following formula:
# (§5) Y=Max+(Min−Max)/[1+(X/IC50)×Slope]
# (§6) wherein Min, Max and Slope represent the minimum, maximum and slope respectively.
# [2] = test system: MV4;11 cells; experiment: Cell proliferation experiment (Alamar blue, 72 h), MV4;11; details: Homo sapiens
# Protocol: as §1, §2, §3, §4, §5, §6
# [3] = test system: MDA-MB-231 cells; experiment: Cell proliferation experiment, MDA-MB-231
# Protocol: as §1, §2, §3, §4, §5, §6
# [4] = test system: NCIH82 cells; experiment: Cell proliferation experiment, NCI-H82; details: Homo sapiens, NCI-H82, NCI-H82 cells; read-out: Inhibitory activity IC50 on NCI-H82
# Protocol: as §1, §2, §3, §4, §5, §6
# [5] = test system: PC-3; experiment: Cell proliferation experiment, PC-3; details: read-out: Inhibitory activity IC50 on PC-3
# Protocol: as §1, §2, §3, §4, §5, §6
# [6] = MV4-11, MV4;11 cells, read-out: Inhibitory activity IC50 on MV4;11
# [7] = Homo sapiens, MDA-MB-231, MDA-MB-231 cells, read-out: Inhibitory activity IC50 on MDA-MB-231
SMILES,IC50 ([1]; Daudi cells),"IC50 [2, 6]","IC50 [3, 7]",IC50 [4],"IC50 ([5]; Homo sapiens, PC-3, PC-3 cells)",also measured
CC[C@@H]1C(=O)N(C)c2cnc(Nc3ccc(C(=O)N[C@H]4CC[C@@H](NC5CCN(CCC#Cc6cccc7c6CN(C6CCC(=O)NC6=O)C7=O)CC5)CC4)cc3OC)nc2N1C1CCCC1 (stereo partly shown) [UB-180934],10 to 100 nM,10 to 100 nM,100 to 1000 nM,–,–,"IC50 ([2]; MV4-11, 72 h, MV4;11 cells, 72 h, read-out: Inhibitory activity IC50 of tested compounds on MV4;11 cells): ≤ 100 nM"
CC[C@@H]1C(=O)N(C)c2cnc(Nc3ccc(C(=O)NCCCOCCCN(CCC#Cc4cccc5c4CN(C4CCC(=O)NC4=O)C5=O)C(=O)OC(C)C(C)SSC[C@@H](NC(=O)[C@@H](CC(=O)O)NC(=O)[C@@H](CC(=O)O)NC(=O)[C@@H](CCCNC(=N)N)NC(=O)[C@@H](CC(=O)O)NC(=O)CC[C@H](NC(=O)c4ccc(NCc5cnc6nc(N)[nH]c(=O)c6n5)cc4)C(=O)O)C(=O)O)cc3OC)nc2N1C1CCCC1 (stereo partly shown) [UB-180939],–,–,–,–,–,"IC50 [1]: 100 to 1000 nM; IC50 ([2]; MV4-11, read-out: Inhibitory activity IC50 on MV4;11): 10 to 100 nM; IC50 ([3]; Homo sapiens, MDA-MB-231, read-out: Inhibitory activity IC50 on MDA-MB-231): > 1000 nM"
CC[C@@H]1C(=O)N(C)c2cnc(Nc3ccc(-c4cn(CCCCCCNCCC#Cc5cccc6c5CN(C5CCC(=O)NC5=O)C6=O)nn4)cc3OC)nc2N1C1CCCC1 (stereo partly shown) [UB-180949],10 to 100 nM,< 10 nM,10 to 100 nM,–,–,–
O=C1CCC(N2Cc3cc(NC(=O)CCOCCOCCOCCn4cc(-c5ccc(Nc6ncc7c(n6)-c6ccc(Cl)cc6C(c6c(F)cccc6F)=NC7)cc5)nn4)ccc3C2=O)C(=O)N1 (stereo not shown) [UB-180950],100 to 1000 nM,< 10 nM,> 1000 nM,100 to 1000 nM,–,–
CC[C@@H]1C(=O)N(C)c2cnc(Nc3ccc(-c4cn([C@H]5CC[C@@H](NCCCCCC#Cc6cccc7c6CN(C6CCC(=O)NC6=O)C7=O)CC5)nn4)cc3OC)nc2N1C1CCCC1 (stereo partly shown) [UB-180977],10 to 100 nM,< 10 nM,< 10 nM,–,–,–
CC[C@@H]1C(=O)N(C)c2cnc(Nc3ccc(C(=O)N[C@H]4CC[C@@H](NCCCCCC#Cc5cccc6c5CN(C5CCC(=O)NC5=O)C6=O)CC4)cc3OC)nc2N1C1CCCC1 (stereo partly shown) [UB-180978],10 to 100 nM,< 10 nM,< 10 nM,–,–,–
CC[C@@H]1C(=O)N(C)c2cnc(Nc3ccc(-c4cn([C@H]5CC[C@@H](N(CCOCCC#Cc6cccc7c6CN(C6CCC(=O)NC6=O)C7=O)C(=O)OC(C)C(C)SSC[C@@H](NC(=O)[C@@H](CC(=O)O)NC(=O)[C@@H](CC(=O)O)NC(=O)[C@@H](CCCNC(=N)N)NC(=O)[C@@H](CC(=O)O)NC(=O)CC[C@H](NC(=O)c6ccc(NCc7cnc8nc(N)[nH]c(=O)c8n7)cc6)C(=O)O)C(=O)O)CC5)nn4)cc3OC)nc2N1C1CCCC1 (stereo partly shown) [UB-180979],10 to 100 nM,10 to 100 nM,100 to 1000 nM,–,–,–
O=C1CCC(N2Cc3cc(NC(=O)CCCCCCCCCNCCn4cc(-c5ccc(Nc6ncc7c(n6)-c6ccc(Cl)cc6C(c6c(F)cccc6F)=NC7)cc5)nn4)ccc3C2=O)C(=O)N1 (stereo not shown) [UB-180986],100 to 1000 nM,10 to 100 nM,> 1000 nM,100 to 1000 nM,–,–
CC[C@@H]1C(=O)N(C)c2cnc(Nc3ccc(-c4cn([C@H]5CC[C@@H](NCCOCCCC#Cc6cccc7c6CN(C6CCC(=O)NC6=O)C7=O)CC5)nn4)cc3OC)nc2N1C1CCCC1 (stereo partly shown) [UB-180992],10 to 100 nM,< 10 nM,10 to 100 nM,–,–,–
CC[C@@H]1C(=O)N(C)c2cnc(Nc3ccc(-c4cn([C@H]5CC[C@@H](NCCOCCCC#Cc6ccc7c(c6)CN(C6CCC(=O)NC6=O)C7=O)CC5)nn4)cc3OC)nc2N1C1CCCC1 (stereo partly shown) [UB-180993],10 to 100 nM,10 to 100 nM,10 to 100 nM,–,–,–
CC[C@@H]1C(=O)N(C)c2cnc(Nc3ccc(-c4cn([C@H]5CC[C@@H](NCCCOCCC#Cc6cccc7c6CN(C6CCC(=O)NC6=O)C7=O)CC5)nn4)cc3OC)nc2N1C1CCCC1 (stereo partly shown) [UB-180998],10 to 100 nM,< 10 nM,10 to 100 nM,–,–,–
CC[C@@H]1C(=O)N(C)c2cnc(Nc3ccc(-c4cn([C@H]5CC[C@@H](NCCCOCCC#Cc6ccc7c(c6)CN(C6CCC(=O)NC6=O)C7=O)CC5)nn4)cc3OC)nc2N1C1CCCC1 (stereo partly shown) [UB-180999],10 to 100 nM,< 10 nM,10 to 100 nM,–,–,–
CC[C@@H]1C(=O)N(C)c2cnc(Nc3ccc(-c4cn([C@H]5CC[C@@H](NCCOCCC#Cc6ccc7c(c6)CN(C6CCC(=O)NC6=O)C7=O)CC5)nn4)cc3OC)nc2N1C1CCCC1 (stereo partly shown) [UB-181004],10 to 100 nM,< 10 nM,10 to 100 nM,–,–,–
O=C1CCC(N2Cc3c(C#CCCNCCOCCOCCNC(=O)c4ccc(Nc5ncc6c(n5)-c5ccc(Cl)cc5C(c5c(F)cccc5F)=NC6)cc4)cccc3C2=O)C(=O)N1 (stereo not shown) [UB-181028],> 1000 nM,100 to 1000 nM,–,> 1000 nM,–,–
O=C1CCC(N2Cc3cc(C#CCCNCCOCCOCCNC(=O)c4ccc(Nc5ncc6c(n5)-c5ccc(Cl)cc5C(c5c(F)cccc5F)=NC6)cc4)ccc3C2=O)C(=O)N1 (stereo not shown) [UB-181029],> 1000 nM,> 1000 nM,–,> 1000 nM,–,–
O=C1CCC(N2Cc3c(NC(=O)CCNCCCOCCCCNC(=O)[C@]4(Cc5cccc(Nc6nccs6)n5)CC[C@@H](Oc5cccc(Cl)c5F)CC4)cccc3C2=O)C(=O)N1 (stereo partly shown) [UB-181030],> 1000 nM,> 1000 nM,–,> 1000 nM,–,–
CC[C@@H]1C(=O)N(C)c2cnc(Nc3ccc(-c4cn([C@H]5CC[C@@H](N(C)CCOCCC#Cc6cccc7c6CN(C6CCC(=O)NC6=O)C7=O)CC5)nn4)cc3OC)nc2N1C1CCCC1 (stereo partly shown) [UB-181045],–,< 10 nM,< 10 nM,–,100 to 1000 nM,–
CC[C@@H]1C(=O)N(C)c2cnc(Nc3ccc(-c4cn([C@H]5CC[C@@H](N(CCO)CCOCCC#Cc6cccc7c6CN(C6CCC(=O)NC6=O)C7=O)CC5)nn4)cc3OC)nc2N1C1CCCC1 (stereo partly shown) [UB-181052],–,10 to 100 nM,100 to 1000 nM,–,< 10 nM,–
CC[C@@H]1C(=O)N(C)c2cnc(Nc3ccc(-c4cn([C@H]5CC[C@@H](N(CCOCCC#Cc6cccc7c6CN(C6CCC(=O)NC6=O)C7=O)C(=O)CO)CC5)nn4)cc3OC)nc2N1C1CCCC1 (stereo partly shown) [UB-181063],–,< 10 nM,100 to 1000 nM,–,100 to 1000 nM,–
CC[C@@H]1C(=O)N(C)c2cnc(Nc3ccc(-c4cn([C@H]5CC[C@@H](NCCCOCC#Cc6cccc7c6CN(C6CCC(=O)NC6=O)C7=O)CC5)nn4)cc3OC)nc2N1C1CCCC1 (stereo partly shown) [UB-181089],–,10 to 100 nM,10 to 100 nM,–,10 to 100 nM,–
CC[C@@H]1C(=O)N(C)c2cnc(Nc3ccc(NC(=O)N[C@H]4CC[C@H](NCCOCCC#Cc5cccc6c5CN(C5CCC(=O)NC5=O)C6=O)CC4)cc3)nc2N1C1CCCC1 (stereo partly shown) [UB-181126],–,< 10 nM,100 to 1000 nM,–,100 to 1000 nM,–
CC[C@@H]1C(=O)N(C)c2cnc(Nc3ccc(NC(=O)N[C@H]4CC[C@H](NCCOCCC#Cc5cccc6c5CN(C5CCC(=O)NC5=O)C6=O)CC4)cc3OC)nc2N1C1CCCC1 (stereo partly shown) [UB-181130],–,< 10 nM,100 to 1000 nM,–,100 to 1000 nM,–
CC[C@@H]1C(=O)N(C)c2cnc(Nc3ccc(-c4cn([C@H]5CC[C@@H](NCCOCCC#Cc6cccc7c6CN(C6CCC(=O)NC6=O)C7=O)CC5)nn4)nc3)nc2N1C1CCCC1 (stereo partly shown) [UB-181153],–,10 to 100 nM,100 to 1000 nM,–,100 to 1000 nM,–
CC[C@@H]1C(=O)N(C)c2cnc(Nc3ccc(C(=O)N[C@H]4CC[C@@H](NCCOCCC#Cc5cccc6c5CN([C@H]5CCC(=O)NC5=O)C6=O)CC4)cc3)nc2N1C1CCCC1 [UB-181179],–,–,–,–,–,"IC50 ([5]; PC-3 cells): 10 to 100 nM; IC50 ([3]; MDA-MB-231 cells, read-out: Inhibitory activity IC50 on MDA-MB-231): 10 to 100 nM"
NC(=O)c1ccccc1Nc1nc(Nc2ccc(C3CCN(C(=O)N[C@H]4CC[C@@H](NCCC#Cc5cccc6c5CN(C5CCC(=O)NC5=O)C6=O)CC4)CC3)cc2)ncc1Cl (stereo partly shown) [UB-181183],10 to 100 nM,< 10 nM,–,10 to 100 nM,10 to 100 nM,–
NC(=O)c1ccccc1Nc1nc(Nc2ccc(C3CCN(C(=O)NC4CCN(C5CN(CCC#Cc6ccc7c(c6)CN(C6CCC(=O)NC6=O)C7=O)C5)CC4)CC3)cc2)ncc1Cl (stereo not shown) [UB-181199],10 to 100 nM,–,–,< 10 nM,10 to 100 nM,–
NC(=O)c1ccccc1Nc1nc(Nc2ccc(N3CCN(C(=O)N[C@H]4CC[C@@H](NCC(O)CC#Cc5ccc6c(c5)CN(C5CCC(=O)NC5=O)C6=O)CC4)CC3)cc2)ncc1Cl (stereo partly shown) [UB-181203],100 to 1000 nM,–,–,100 to 1000 nM,100 to 1000 nM,–
NC(=O)c1ccccc1Nc1nc(Nc2ccc(C3CCN(C(=O)N[C@H]4CC[C@@H](NCCCCOCCC#Cc5ccc6c(c5)CN(C5CCC(=O)NC5=O)C6=O)CC4)CC3)cc2)ncc1Cl (stereo partly shown) [UB-181205],100 to 1000 nM,–,–,100 to 1000 nM,100 to 1000 nM,–
O=C1CCC(N2Cc3cc(NC(=O)CCOCCOCCOCCN[C@H]4CC[C@@H](n5cc(-c6ccc(Nc7ncc8c(n7)-c7ccc(Cl)cc7C(c7c(F)cccc7F)=NC8)cc6)nn5)CC4)ccc3C2=O)C(=O)N1 (stereo partly shown) [UB- 180980],100 to 1000 nM,< 10 nM,> 1000 nM,> 1000 nM,–,–
